# In US9504256B2, “Fabrication of magnetic nanoparticles” (University of South Carolina, priority 2013, dated 2016):
# Test system: Staphylococcus aureus ATCC 25423
# Assay: Disk diffusion assay
# Format: cell-based
# Conditions: ATCC25423, 12 μg PenG, read-out: inhibition zone diameter
# Procedure: The PMAA grafted magnetic nanoparticles were used to non-covalently attach the beta-lactam antibiotic penicillin-G (PenG) and subsequently tested for activity against bacteria. Escherichia coli (Gram-negative) and Staphylococcus aureus (Gram-positive) were selected as the target bacteria. The disk diffusion assay of PenG-nanoparticle complex was conducted with a control group of free PenG of the same dose (12 μg PenG). […] Thus, PMAA grafted magnetic nanoparticles enhanced the bioactivity of penG against bacteria when the nanoparticles were physically bound with PenG. Without wishing to be bound by any particular theory, it is believed that the enhanced inhibition activity was due to the locally high concentrations of antibiotics physically attached to PMAA grafted magnetic nanoparticles, which overwhelms the resistance of bacterial strains. The magnetic properties also offer a valuable stimulus technique to direct the nanoparticles in complicated bacterial environments, such as biofilms, while free antibiotic are not able to access cells in the sticky extracellular polymeric substances (EPS) of biofilms.
# Escherichia coli ATCC 25922 and Staphylococcus aureus ATCC 25423 were allowed to grow in 10 mL of tryptic soy broth (TSB) at 37° C. overnight to an optical density of 0.8 (OD600=0.8) and then diluted 10-fold. 0.1 mL of the diluted culture was used to inoculate an agar plate. […]
structure (smiles),measurement,value
"CC1(C)S[C@@H]2[C@H](NC(=O)Cc3ccccc3)C(=O)N2[C@H]1C(=O)O [free PenG, penicillin-G]",zone of inhibition at 12 µg/disc,18 mm
